The test system of series [1] is low density lipoprotein (LDL) oxidation. To be noted: Visioli and Galli, 1998; cited from earlier work.
Another series deals with 5-lipoxygenase. To be noted: de la Puerta et al., 1999; Kohyama et al., 1997; cited from earlier work.
In a further series the test system is 12-lipoxygenase. The note with it: de la Puerta et al., 1999; Kohyama et al., 1997; cited from earlier work.
For another series, the system named is platelet aggregation. To be noted: Petroni et al., 1995; cited from earlier work.
For series [2], the system named is various human cellular systems. The note with it: Manna et al., 2000; cited from earlier work.
Series [3] concerns peroxynitrite dependent DNA base modification and tyrosine nitration. To be noted: Deiana et al., 1999; cited from earlier work.
The conditions of series [4]: humans; Visioli et al., 2000; cited from earlier work.
The next series relates to erythema nodosum. Briefly: Example 1: patient with erythema nodosum treated with vegetation water composition tablets. In kind it is in vivo, human. To be noted: 5 mg predonine for nearly 2.3 years. Here is the method:
In studies conducted in support of the invention, compositions comprised of the vegetation water composition were prepared and administered to test subjects, as set forth in Examples 1-6. Briefly, the pitted pulp of olives was masticated and pressed to produce a liquid-phase mixture and solid by-products. The solid by-products were separated and removed from the liquid-phase mixture by filtration and centrifugation. The liquid-phase mixture was allowed to rest to allow the oil and aqueous fractions to segregate. The aqueous phase was decanted and acidified with citric acid to adjust the pH between 2 and 4. The acidified aqueous fraction was concentrated by distillation under vacuum and dried by spray drying or oven drying under vacuum to obtain a powder, which was used to prepare the tablets as used in Examples 1-6. Each tablet contained 90 mg of olive pulp solids, 5.4 mg of total polyphenols, and ˜2.5 mg of hydroxytyrosol.
In another embodiment, the compositions of the invention are suitable for treating erythema nodosum. Erythema nodosum is an inflammatory condition characterized by tender, red bumps, and is usually found on the shins, but may also occur on other areas of the body such as the buttocks, calves, ankles, thighs, and upper extremities. Quite often, erythema nodosum is not a separate disease, but, rather, a sign of some other disease, or of sensitivity to a drug. […]

The structures appear in SMILES notation.

These results are taken from patent US9789149B2, “Vegetation water composition for treatment of inflammatory skin conditions” (CreAgri, Inc., priority 2005, dated 2017).

In the case of `OCCc1ccc(O)c(O)c1` [hydroxytyrosol, 3,4-dihydroxyphenethyl alcohol], the LDL oxidation entry in series [1] is on record as “prevents”. Also, the “inhibition of 5-lipoxygenase” value with 5-lipoxygenase is “inhibits”. In addition, in the series on 12-lipoxygenase, the “inhibition of 12-lipoxygenase” value is given as “inhibits”. Besides, the platelet aggregation result with platelet aggregation is given as “prevents”. Moreover, in series [2], the “cytotoxicity induced by reactive oxygen species” value is listed as “counteracts”. In addition, the “peroxynitrite dependent DNA base modification and tyrosine nitration” value in series [3] is listed as “inhibitory effect”. For the same compound, the absorption following ingestion entry in series [4] is reported as “dose-dependently absorbed”.

Turning to `C[C@]12C=CC(=O)C=C1CC[C@@H]1[C@@H]2[C@@H](O)C[C@@]2(C)[C@H]1CC[C@]2(O)C(=O)CO` [predonine], in the series on erythema nodosum, the “erythema nodosum lesions, prior treatment” value is listed as “little resolution”.
